Experimental data as given in paper PMC11253858, “New melphalan derivatives for the treatment of retinoblastoma in combination with thermotherapy” (RSC Medicinal Chemistry, 2024).
Values joined by “and” are separate entries in the source; they are usually repeats but may differ in a detail not shown here. Equal entries are not always repeated. Where two headings read alike, the source gives them in different places.

Tests used:
[1] = tested on: Y79 human retinoblastoma cell line; assay: Presto blue cell viability assay in Y79 after 24 hours; format: cell-based; settings: for IC50: Homo sapiens; for fold increase in cytotoxicity (lower IC50) compared to melphalan / cytotoxicity at the elevated temperature relative to 37 °C: Y79, 24 hours; for fold increase in cytotoxicity (lower IC50) compared to melphalan: 37 °C; for cytotoxicity at the elevated temperature relative to 37 °C: 42 °C for 1 hour vs 37 °C
Method: The IC50 values were determined using the presto blue cell viability assay (Table 1).
(§1) The human retina (RPE1) and retinoblastoma (Y79) cell lines were purchased from ATCC, Switzerland. RPMI 1640, DMEM high glucose Glutamax and DMEM GlutaMAX media were obtained from Life Technologies, and fetal bovine serum (FBS) was obtained from Sigma. Cell culture was performed in RPMI 1640 with 20% FBS and DMEM high glucose Glutamax with 10% FBS for Y79 and RPE1, respectively. Cell passage was performed twice per week using the appropriate medium and the resulting flaks were maintained in a bioincubator (Thermo Scientific, Switzerland) that controlled the humidity and fixed the CO2 rate to 5%. Cell viability tests were conducted in a flat bottomed 96 or 384 well plate using a compound stock solution prepared in dimethyl sulfoxide (DMSO) for all compounds except Cisplatin. The maximum concentration of DMSO in the wells was 0.1% DMSO.
2. Presto Blue cell viability assay in Y79 after 24 hours
The optimization of the starting concentration was carried out for each tested compound after 24 h of incubation. In order to conduct the tests at the mentioned time lapses, Y79’s work cell solutions were prepared at 10 6 cell/mL for the 24 h experiment. The same protocol as described below was used, however in this case, the experiment was conducted […]
3. Presto Blue cell viability assay in Y79 and RPE1 cells at 72 h […]
tests were conducted using cell work solutions at 4x10^5 and 7x10^5 cell/mL respectively and compound stock solutions were prepared at 10 µM in DMSO. The robotic System (Echo 550 […]
LIQUID HANDLER) charged the 384-cell plate with a decreasing volume of each compound’s SS in order to have a concentration gradient that covers 100 to 0.7 µM. DMSO was added to […]
added in the plate using a disperser (Thermo Scientific Multidrop Combi, Switzerland).
(§2) For thermal assays, the plates were placed in a heat chamber at 42 °C for 1 h and then transferred to a bioincubator at 37 °C for 71 h where the control plates were already placed. After 72 h of a total incubation time, […] of presto blue were added to each well and all the plates were incubated for 1 h at 37 °C. For presto blue cell viability assays, gambogic acid was used at 10 µM and represented the positive control, while DMSO at a final concentration of 0.1% presented the negative control. Fluorescence was measured using a […]
(§3) plate reader (Tecan […] F500 reader, Switzerland) at 560 nm for […] and 590 nm for fluorescence. The normalization of the fluorescence’s intensities was conducted with GraphPad software using Gambogic acid and DMSO as positive and negative control, […]

[2] = tested on: human retinoblastoma cells (Y79); assay: Presto Blue cell viability assay in Y79 cells at 72 h; format: cell-based
Method: (§4) The cytotoxicity of the two most promising derivatives, i.e.3d and 3e, was subsequently evaluated on human retinoblastoma (Y79) and healthy human retina (RPE1) immortalised cells after 72 hours of incubation in 2D settings under standard conditions, i.e. at 37 °C and 5% CO2, and also under conditions that mimic mild hyperthermia, i.e. at 42 °C for 1 hour followed by 71 hours at 37 °C, respectively, see Table 2.
as §1, with “DMSO. […]” for “DMSO.”
(§5) 3. Presto Blue cell viability assay in Y79 and RPE1 cells at 72 h
(§6) In order to evaluate the cytotoxicity of 3a-3f on Y79 and RPE1 cell lines, cell viability tests were conducted using cell work solutions at 4x10^5 and 7x10^5 cell/mL respectively and compound stock solutions were prepared at 10 µM in DMSO. The robotic System (Echo 550 […]
(§7) LIQUID HANDLER) charged the 384-cell plate with a decreasing volume of each compound’s SS in order to have a concentration gradient that covers 100 to 0.7 µM. DMSO was added to each well so as to have the same final volume of compound’s solution in each well. Cells were added in the plate using a disperser (Thermo Scientific Multidrop Combi, Switzerland).
as §2, §3

[3] = tested on: healthy human retina (RPE1) immortalised cells; assay: Presto Blue cell viability assay in RPE1 cells at 72 h; format: cell-based; settings: for cytotoxicity to healthy RPE1 cells relative to tumoral Y79 cells (selectivity): 72 hours; for IC50: Homo sapiens, RPE-1
Method: as §4
as §1, with “DMSO. […]” for “DMSO.”
as §5, §6, §7, §2, §3

[4] = tested on: dsDNA oligonucleotide 5'-AGGCAG-3' (B1) / 3'-TCCGTC-5' (B2); assay: DNA binding ESI-MS study with model double stranded oligonucleotide; settings: 37 °C, 48 hours incubation; for adduct formation with the dsDNA oligonucleotide (ESI-MS): 1 : 5 ratio
Method: The resulting solutions were measured by electrospray ionization mass spectrometry (ESI-MS) and the analysis of the spectra[45] is provided in the ESI ^† and summarised in Fig. 2a.
Furthermore, the relative amount of melphalan derivative-bound dsDNA follows the same trend as the toxicity of the compounds. […] The relative amount of these adducts decreases with the chain length, which could be a consequence of the higher hydrophobicity of the compounds and hint at a higher resistance to hydrolysis. […] No crosslinked DNA adducts, known to be relevant hallmarks in the melphalan mechanism of action, were detected, probably due to the difficulty to observe them upon ionization.[47]

[5] = tested on: myeloma RPMI 8226 cell line; parameters: method as in PMID 32161295; settings: cited from earlier work
[6] = Y79, 1 hour at 42 °C followed by 23 hours at 37 °C, read-out: IC50 42 °C
[7] = Y79, 24 hours at 37 °C, 5% CO2, read-out: IC50 37 °C
[8] = Y79, 1 hour at 42 °C followed by 71 hours at 37 °C, read-out: Y79 IC50 42 °C
[9] = Y79, 72 hours at 37 °C, read-out: Y79 IC50 37 °C
[10] = RPE1, 1 hour at 42 °C followed by 71 hours at 37 °C, read-out: RPE1 IC50 42 °C
[11] = RPE1, 72 hours at 37 °C, read-out: RPE1 IC50 37 °C

SMILES: N[C@@H](Cc1ccc(N(CCCl)CCCl)cc1)C(=O)OCCC(F)(F)F [Compound 3a]
- IC50 [1, 6]: 1.1 ± 0.1 µM
- IC50 [1, 7]: 1.2 ± 0.1 µM

SMILES: N[C@@H](Cc1ccc(N(CCCl)CCCl)cc1)C(=O)OCCC(F)(F)C(F)(F)F [Compound 3b]
- IC50 [1, 6]: 1.8 ± 0.1 µM
- IC50 [1, 7]: 2.2 ± 0.1 µM

SMILES: N[C@@H](Cc1ccc(N(CCCl)CCCl)cc1)C(=O)OCCC(F)(F)C(F)(F)C(F)(F)C(F)(F)F [Compound 3c]
- IC50 [1, 6]: 2.1 ± 0.2 µM
- IC50 [1, 7]: 3.4 ± 0.2 µM

SMILES: Cl.N[C@@H](Cc1ccc(N(CCCl)CCCl)cc1)C(=O)OCCC(F)(F)C(F)(F)C(F)(F)C(F)(F)C(F)(F)C(F)(F)F [Compound 3d]
- IC50 [1, 6]: 3.3 ± 0.2 µM
- IC50 [1, 7]: 5.9 ± 0.3 µM
- fold increase in cytotoxicity (lower IC50) compared to melphalan [1]: 5 to 10 fold and 10 fold
- cytotoxicity at the elevated temperature relative to 37 °C [1]: approximately twice as cytotoxic
- IC50 [2, 8]: 2.1 ± 0.2 µM
- IC50 [2, 9]: 2.3 ± 0.1 µM
- cytotoxicity to healthy RPE1 cells relative to tumoral Y79 cells (selectivity) [3]: more than an order of magnitude less cytotoxic
- IC50 [3, 10]: 31.5 ± 2.7 µM
- IC50 [3, 11]: 39.3 ± 5 µM
- extent of ester cleavage in oligonucleotide adducts (ESI-MS) [4]: more significant

SMILES: Cl.N[C@@H](Cc1ccc(N(CCCl)CCCl)cc1)C(=O)OCCC(F)(F)C(F)(F)C(F)(F)C(F)(F)C(F)(F)C(F)(F)C(F)(F)C(F)(F)F [Compound 3e]
- IC50 [1, 6]: 6.6 ± 0.4 µM
- IC50 [1, 7]: 13 ± 0.4 µM
- fold increase in cytotoxicity (lower IC50) compared to melphalan [1]: 5 to 10 fold and 5 fold
- cytotoxicity at the elevated temperature relative to 37 °C [1]: approximately twice as cytotoxic
- IC50 [2, 8]: 4.4 ± 0.3 µM
- IC50 [2, 9]: 4.5 ± 0.1 µM
- cytotoxicity to healthy RPE1 cells relative to tumoral Y79 cells (selectivity) [3]: more than an order of magnitude less cytotoxic
- IC50 [3, 10]: 42.3 ± 6 µM
- IC50 [3, 11]: 52.8 ± 9.3 µM
- extent of ester cleavage in oligonucleotide adducts (ESI-MS) [4]: more significant

SMILES: Cl.N[C@@H](Cc1ccc(N(CCCl)CCCl)cc1)C(=O)OCCC(F)(F)C(F)(F)C(F)(F)C(F)(F)C(F)(F)C(F)(F)C(F)(F)C(F)(F)C(F)(F)C(F)(F)F [Compound 3f]
- IC50 [1, 6]: 183 ± 20 µM
- IC50 [1, 7]: > 200 µM
- adduct formation with the dsDNA oligonucleotide (ESI-MS) [4]: no adducts were observed

SMILES: N[C@@H](Cc1ccc(N(CCCl)CCCl)cc1)C(=O)O [Melphalan]
- IC50 [1, 6]: 26 ± 2 µM
- IC50 [1, 7]: 59 ± 5 µM
- adduct formation with the dsDNA oligonucleotide (ESI-MS) [4]: formed adducts with both strands of the oligonucleotides

SMILES: CCOC(=O)C(N)Cc1ccc(N(CCCl)CCCl)cc1 (stereo not shown) [ethyl ester derivative of melphalan]
- IC50 [5]: 1.2 ± 0.3 µM
- fold increase in cytotoxicity compared to melphalan [5]: 8 fold
